# How the values were obtained:
# Type in all cases: biochemical
# Conditions in all cases: 1 μM test article, 1 mM ATP
# 288 kinases = experiment: Large panel kinase profiling, overall selectivity
# Description: Large panel kinase profiling was performed at AssayQuant Technologies, Inc. 260 Cedar Hill Street, Marlborough, Mass. 01752 using the PhosphoSens® CSox-Sensor platform using 1 μM test article concentration and 1 mM ATP concentration (www.assayquant.com). Reactions were run in Corning, half-area 96-well, white flat round bottom polystyrene NBS microplates (Cat. #3642) after sealing using optically-clear adhesive film (TopSealA-Plus plate seal, PerkinElmer), applied with either a roller or a paddle to eliminate evaporation and resulting drift. The standard total reaction volume was 50 μL. All experiments were ran at 30° C. to control for fluctuations in ambient temperature. Plates were read from the top in kinetic mode (readings taken every 1 min), monitoring fluorescence intensity with filters using Ex 360 nm and Em 485 nm and a band width of 40 and 20 nm, respectively, and a gain of 80. Data analysis was performed using either Graphpad Prism or Gene Data Screener software.
# EPHA2 = EPHA2 (Homo sapiens, UniProt P29317); experiment: Large panel kinase profiling
# Sequence of EPHA2 (P29317 24-976, species assumed): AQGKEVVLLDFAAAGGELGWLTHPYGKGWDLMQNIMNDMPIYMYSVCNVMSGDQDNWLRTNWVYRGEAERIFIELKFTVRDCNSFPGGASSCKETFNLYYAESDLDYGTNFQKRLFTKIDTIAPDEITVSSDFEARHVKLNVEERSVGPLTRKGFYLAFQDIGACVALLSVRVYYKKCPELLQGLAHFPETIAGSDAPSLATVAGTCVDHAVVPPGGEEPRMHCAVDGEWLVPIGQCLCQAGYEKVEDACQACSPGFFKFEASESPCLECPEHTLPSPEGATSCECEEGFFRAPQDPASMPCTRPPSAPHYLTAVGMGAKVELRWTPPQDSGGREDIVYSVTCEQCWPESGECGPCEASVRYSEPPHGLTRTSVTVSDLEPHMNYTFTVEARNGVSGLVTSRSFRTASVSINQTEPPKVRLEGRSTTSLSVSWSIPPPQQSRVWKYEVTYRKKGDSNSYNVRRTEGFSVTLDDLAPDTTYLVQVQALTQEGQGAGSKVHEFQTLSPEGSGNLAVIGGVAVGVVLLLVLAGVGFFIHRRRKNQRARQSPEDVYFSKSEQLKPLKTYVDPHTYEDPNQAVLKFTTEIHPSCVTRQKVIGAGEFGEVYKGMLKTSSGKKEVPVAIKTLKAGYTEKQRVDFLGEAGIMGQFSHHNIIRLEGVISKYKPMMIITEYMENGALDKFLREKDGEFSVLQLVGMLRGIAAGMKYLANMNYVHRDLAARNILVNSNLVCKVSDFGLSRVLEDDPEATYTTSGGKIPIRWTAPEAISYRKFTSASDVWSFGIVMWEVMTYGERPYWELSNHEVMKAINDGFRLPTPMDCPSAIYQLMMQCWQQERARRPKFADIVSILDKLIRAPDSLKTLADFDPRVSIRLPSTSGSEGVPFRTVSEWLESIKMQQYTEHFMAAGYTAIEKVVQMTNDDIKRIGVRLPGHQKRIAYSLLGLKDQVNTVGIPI
# Summary of the method: (§1)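 Kinase activity was followed with the PhosphoSens CSox-Sensor platform, testing compound at 1 μM in the presence of 1 mM ATP. Reactions ran at 30° C. and fluorescence (Ex 360 nm/Em 485 nm) was read kinetically every 1 min.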
# GRK2 = target: T1, GRK2 (Homo sapiens, UniProt P25098); experiment: Large panel kinase profiling
# T1 construct: AssayQuant Technologies, Inc. (service provider)
# T1 sequence (P25098 1-689): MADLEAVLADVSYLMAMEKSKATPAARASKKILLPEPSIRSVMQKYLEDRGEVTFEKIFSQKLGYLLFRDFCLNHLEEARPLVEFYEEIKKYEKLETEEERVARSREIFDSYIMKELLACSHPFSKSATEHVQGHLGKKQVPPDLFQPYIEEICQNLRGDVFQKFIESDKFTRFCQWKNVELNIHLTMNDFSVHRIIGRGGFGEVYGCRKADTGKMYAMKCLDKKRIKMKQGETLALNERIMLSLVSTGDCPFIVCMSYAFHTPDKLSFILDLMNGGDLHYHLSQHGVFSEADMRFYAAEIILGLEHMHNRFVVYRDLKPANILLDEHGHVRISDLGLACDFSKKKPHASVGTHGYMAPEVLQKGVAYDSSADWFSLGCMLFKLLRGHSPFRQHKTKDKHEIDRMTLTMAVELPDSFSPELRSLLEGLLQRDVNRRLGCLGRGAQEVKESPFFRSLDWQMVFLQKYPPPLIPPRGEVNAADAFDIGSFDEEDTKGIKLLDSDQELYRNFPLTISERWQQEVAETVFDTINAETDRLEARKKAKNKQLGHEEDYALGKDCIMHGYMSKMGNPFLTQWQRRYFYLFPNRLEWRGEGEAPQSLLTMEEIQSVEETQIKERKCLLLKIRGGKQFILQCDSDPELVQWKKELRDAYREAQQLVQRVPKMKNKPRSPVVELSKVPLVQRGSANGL
# Summary of the method: as §1
# MAP3K5 = target: T2, MAP3K5 (Homo sapiens, UniProt Q99683); experiment: Large panel kinase profiling
# T2 construct: AssayQuant Technologies, Inc. (service provider)
# T2 sequence (Q99683 1-1374): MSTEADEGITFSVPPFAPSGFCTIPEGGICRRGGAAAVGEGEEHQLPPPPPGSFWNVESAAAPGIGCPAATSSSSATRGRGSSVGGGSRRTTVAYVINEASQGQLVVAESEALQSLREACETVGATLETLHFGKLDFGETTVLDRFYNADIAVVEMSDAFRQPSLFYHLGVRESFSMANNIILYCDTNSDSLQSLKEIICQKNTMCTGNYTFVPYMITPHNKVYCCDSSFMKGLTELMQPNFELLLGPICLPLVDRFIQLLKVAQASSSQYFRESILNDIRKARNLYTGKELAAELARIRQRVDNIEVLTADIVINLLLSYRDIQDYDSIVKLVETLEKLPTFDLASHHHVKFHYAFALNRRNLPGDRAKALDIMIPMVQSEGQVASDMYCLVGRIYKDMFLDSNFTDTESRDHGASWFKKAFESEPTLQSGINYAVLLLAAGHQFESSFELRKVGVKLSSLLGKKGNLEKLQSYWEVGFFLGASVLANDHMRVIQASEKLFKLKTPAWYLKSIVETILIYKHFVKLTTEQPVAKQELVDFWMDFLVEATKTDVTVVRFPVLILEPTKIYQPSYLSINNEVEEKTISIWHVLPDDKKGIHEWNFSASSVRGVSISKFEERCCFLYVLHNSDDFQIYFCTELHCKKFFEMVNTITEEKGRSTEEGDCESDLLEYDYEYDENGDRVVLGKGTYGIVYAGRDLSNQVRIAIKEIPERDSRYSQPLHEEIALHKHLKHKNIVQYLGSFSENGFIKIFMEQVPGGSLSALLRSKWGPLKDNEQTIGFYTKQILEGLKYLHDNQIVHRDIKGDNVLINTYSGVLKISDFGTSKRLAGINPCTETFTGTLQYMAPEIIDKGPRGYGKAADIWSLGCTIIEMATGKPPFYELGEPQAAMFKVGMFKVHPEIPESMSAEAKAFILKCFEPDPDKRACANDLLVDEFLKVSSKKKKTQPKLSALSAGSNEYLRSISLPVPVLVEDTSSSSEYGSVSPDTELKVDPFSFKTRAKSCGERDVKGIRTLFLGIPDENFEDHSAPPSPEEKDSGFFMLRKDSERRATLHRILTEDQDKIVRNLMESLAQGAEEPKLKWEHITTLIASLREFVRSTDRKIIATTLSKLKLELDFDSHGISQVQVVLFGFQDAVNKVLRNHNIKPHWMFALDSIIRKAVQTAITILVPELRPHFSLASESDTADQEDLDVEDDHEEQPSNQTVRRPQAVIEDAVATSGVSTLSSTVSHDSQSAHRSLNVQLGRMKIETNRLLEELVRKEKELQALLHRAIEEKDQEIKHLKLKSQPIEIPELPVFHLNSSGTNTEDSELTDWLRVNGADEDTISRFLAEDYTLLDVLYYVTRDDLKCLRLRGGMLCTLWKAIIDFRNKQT
# Summary of the method: as §1
# TSSK2 = target: T3, TSSK2 (Homo sapiens, UniProt Q96PF2); experiment: Large panel kinase profiling
# T3 construct: AssayQuant Technologies, Inc. (contract laboratory that ran the panel)
# T3 sequence (Q96PF2 1-358): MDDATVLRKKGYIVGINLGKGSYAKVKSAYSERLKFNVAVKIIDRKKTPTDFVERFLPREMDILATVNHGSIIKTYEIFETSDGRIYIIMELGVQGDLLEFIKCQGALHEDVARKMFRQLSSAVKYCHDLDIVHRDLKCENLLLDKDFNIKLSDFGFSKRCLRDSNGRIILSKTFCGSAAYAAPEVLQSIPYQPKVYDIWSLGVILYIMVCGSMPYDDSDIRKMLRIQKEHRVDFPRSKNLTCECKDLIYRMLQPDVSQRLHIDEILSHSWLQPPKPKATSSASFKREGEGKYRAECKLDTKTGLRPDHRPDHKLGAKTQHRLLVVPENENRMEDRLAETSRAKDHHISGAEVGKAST
# Summary of the method: as §1
Compound,selectivity in the large panel kinase screen (288 kinases),inhibition at 1 µM (EPHA2) [%],inhibition at 1 µM (GRK2) [%],inhibition at 1 µM (MAP3K5) [%],inhibition at 1 µM (TSSK2) [%]
"C=CC(=O)N1CCCC(c2c(F)cc(C(N)=O)c3[nH]c4c(c23)CCCCC4)C1 (single isomer, unassigned) [Compound 5-6]",highly selective,-1.9,-14.8,-10.4,10.2
"C=CC(=O)N1CCC[C@@H](c2c(F)cc(C(N)=O)c3[nH]c4c(c23)CC2(CC4)CC2)C1 [Compound 6-2, (S)-5-(1-acryloylpiperidin-3-yl)-6-fluoro-1,2,4,9-tetrahydrospiro[carbazole-3,1′-cyclopropane]-8-carboxamide]",highly selective,9.5,-10.5,20,22.9
"C=CC(=O)N1CCC[C@@H](c2c(F)cc(C(N)=O)c3[nH]c4c(c23)CCC4)C1 [Compound 10-2, (S)-8-(1-acryloylpiperidin-3-yl)-7-fluoro-1,2,3,4-tetrahydrocyclo-penta[b]indole-5-carboxamide]",highly selective,-9.6,-1.6,16.7,25.3

# Source: patent publication US20220009920A1 (GB005, Inc., priority 2020, published 2022)
